Laboratory results: patent US20250188110A1, “SPECIFIC SMALL MOLECULE INHIBITORS THAT BLOCK KMT9 METHYLTRANSFERASE ACTIVITY AND FUNCTION” (ALBERT-LUDWIGS-UNIVERSITÄT FREIBURG, priority 2021, published 2025)

Key:
KMT9 [1] = target: T1, KMT9 (Homo sapiens, UniProt Q9Y5N5); assay: KMT9 methyltransferase inhibition assay, 3H-SAM scintillation (entries 1-154); type: biochemical; settings: entries 1-154: 3H-SAM assay, 25 nM KMT9, 5 μM ETF1
T1 sequence (Q9Y5N5 1-214): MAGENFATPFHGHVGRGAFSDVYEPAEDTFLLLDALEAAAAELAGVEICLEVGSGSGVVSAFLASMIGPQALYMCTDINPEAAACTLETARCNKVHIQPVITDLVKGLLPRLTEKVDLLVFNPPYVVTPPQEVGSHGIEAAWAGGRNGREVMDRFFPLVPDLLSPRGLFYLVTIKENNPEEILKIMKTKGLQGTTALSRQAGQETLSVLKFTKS
T1 sequence (Q9UI30 1-120 isoform Q9UI30-2 partner): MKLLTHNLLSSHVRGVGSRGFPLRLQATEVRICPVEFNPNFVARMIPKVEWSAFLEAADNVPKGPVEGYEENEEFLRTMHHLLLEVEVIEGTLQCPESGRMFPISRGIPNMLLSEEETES
Protocol: The assay was carried out in 0.5 mL Eppendorf tubes in duplicates. Assay buffer consisted of 50 mM BTP, 1 mM MgCl2, 1 mM DTT and 0.01% Triton-X^100 at a pH of 8.5 (adjusted using 1 M HCl and 1 M NaOH). 20X inhibitor stock (in DMSO), 2X enzyme stock and 4X substrate mix (both in assay buffer) were prepared. The substrate mix consisted of Tritium-labelled S-adenosylmethionine (3H-SAM), S-adenosylmethionine (SAM) and eukaryotic peptide chain release factor subunit1 (Homo sapiens, residues 140-275)(ETF1). Final assay concentrations were set to 25 nM KMT9, 0.3 μM 3H-SAM, 0.7 µM SAM and 5 μM ETF1. […] 5 μL of 4x substrate mix was added to initiate the reaction. The final reaction volume was 20 μL. For the positive control, the compound of formula (I) was replaced by DMSO; for the negative control, the compound of formula (I) was replaced by DMSO and KMT9 was replaced by assay buffer. The reaction mix was incubated in an Eppendorf thermomixer comfort at 30° C. for 2 h, shaking at 300 rpm. The reaction was quenched using 5 μL 50% trichloroacetic acid (TCA) and incubated at 25° C. for 5 minutes. 22 μL of the mixture was transferred into 96-well MultiScreen@HTS FB filter plates (Merck KGaA, Darmstadt, Germany) and washed four times with 10% TCA and two times with 100% ethanol. The plate was dried overnight, the filters were transferred into individual 6 mL Pony Vials (Perkin Elmer Inc, Waltham, MA, USA) and incubated in 3 mL of Ultima Gold scintillation cocktail (Perkin Elmer Inc, Waltham, MA, USA) for 30 minutes. The scintillation signal was measured for 3x 1 min using TriCarb 2910 TR (Perkin Elmer) scintillation counter in 3H CPM mode (LL: 0, UL: 18.6). Inhibition was calculated using the following formula: […]
With xc: signal of compound, Xpos: mean signal of positive control, Xneg: mean signal of negative control. Data fitting was carried out by GraphPad 7.0 using nonlinear fit ([Inhibitor]vs. response-variable slope (four parameters)).
For the results of the methyltransferase inhibition assay shown as “Inhibition” in Table 1, “I” represents an IC50 less than 0.1 μM, “II” represents an IC50 equal or higher than 0.1 μM and less than 1 μM, “III” represents an IC50 equal or higher than 1 µM and less than 10 µM and “IV” represents an IC50 equal or higher than 10 µM

KMT9 [2] = target: T1, KMT9; assay: Microscale thermophoresis (MST) KMT9 binding; settings: microscale thermophoresis, His-tag labelled KMT9 (20 nM); read-out: MST
Protocol: To determine the binding affinity of the compounds according to the present invention and KMT9, microscale thermophoresis (MST) analysis was performed with a NanoTemper Monolith NT.115 instrument (NanoTemper Technologies GmbH). KMT9 was labelled with a RED-Tris-NTA labelling kit (NanoTemper Technologies GmbH) based on the manufacturer's instructions. Buffer including 25 mM HEPES (pH 7.5), 100 mM NaCl, 1 mM DTT and 0.05% Tween was used for the reaction buffer. Varying concentrations of the tested compounds of formula (I) as indicated in Table 1 were titrated against His-tag labelled KMT9 proteins (20 nM). Samples were loaded into standard Capillaries (NanoTemper Technologies GmbH) and MST measurements were performed using 40% MST power and 100% LED power. For each set of binding experiments, MST measurement was carried out with Binding Affinity module in MO.Control program under Nano-RED Excitation. Datasets were processed with the MO.Affinity Analysis software (NanoTemper Technologies GmbH).
For the results of the microscale thermophoresis (MST) assay shown as “MST” in Table 1, “A” represents a Kd of equal to or less than 10 nM (Kd≤10 nM); “B” represents a Kd of greater than 10 nM and equal to or less than 100 nM (10 nM<Kd<100 nM); “C” represents a Kd of greater than 100 nM and equal to or less than 1000 nM (100 nM<Kd ≤ 1000 nM); “D” represents a Kd of greater than 1000 nM (1000 nM<Kd).

KMT9 [3] = target: T1, KMT9; assay: KMT9 thermal shift assay (SyproOrange); type: binding; settings: ΔTm; 500 µM compound, 2 μM KMT9, 5X SO; read-out: Thermal shift
Protocol: The assay was carried out in 96-well Hard-Shell PCR plates (Bio-Rad Laboratories Inc.). Assay buffer consisted of 50 mM BTP, 1 mM MgCl2 and 1 mM DTT at a pH of 8.5 (adjusted using 1 M HCl and 1 M NaOH). 20X inhibitor stock (in DMSO), 2X enzyme stock and 4X SyproOrange (SO) stock (both in assay buffer) were prepared. 1 μL of 20X compound, 4 μL of assay buffer, 10 μL of 2X KMT9 and 5 μL of 4X SO were pipetted. For the no-compound control, 20X inhibitor stock was replaced by DMSO. The final volume was 20 μL. The plate was spun down at 700 rpm for 1 min using a Hettich UNIVERSAL 320 centrifuge and incubated at 25° C., shaking at 600 rpm. After incubation, the plate was spun down for 1 min at 700 rpm and measurement was conducted using a CFX96 Touch Real-Time PCR Detection System (Bio-Rad Laboratories Inc.). The plate was equilibrated at 20° C. for 4 min and then heated stepwise at a rate of 1° C. per 15 s until 95° C. After every step, fluorescence was measured in FRET mode. Calculation of melting points was conducted by a Boltzman sigmoidal model using GraphPad Prism 7.0.
For the results of the thermal shift assay shown as “Thermal shift” in Table 1, “++++” represents a ΔTm of greater 20 K, “+++” represents a ΔTm of greater than 15 K and less than or equal to 20 K (15 K<ΔTm≤20 K); “++” represents a ΔTm of greater than 10 K and less than or equal to 15 K (10 K<ΔTm ≤ 15 K); “+” represents a ΔTm of equal to or less than 10 K (ΔTm≤10 K).

| Compound | IC50 (KMT9 [1]) [µM] | Kd (KMT9 [2]) [µM] | ΔTm at 500 µM (KMT9 [3]) [°C] |
| --- | --- | --- | --- |
| Nc1ncnc2c1ncn2[C@@H]1O[C@H](CNCCCNCc2ccc(OCc3ccccc3)cc2)[C@@H](O)[C@H]1O [321 (224), (2R,3R,4S,5R)-2-(6-amino-9H-purin-9-yl)-5-(((3-((4-(benzyloxy)benzyl)amino)propyl)amino)methyl)tetrahydrofuran-3 4-diol] | > 10 | 0.1 to 1 | ≤ 10 |
| Nc1ncnc2c1ncn2[C@@H]1O[C@H](CNCCCNCc2ccc3ccccc3c2)[C@@H](O)[C@H]1O [323 (226), (2R,3R,45,5R)-2-(6-amino-9H-purin-9-yl)-5-(((3-((naphthalen-2-ylmethyl)amino)propyl)amino)methyl)tetrahydrofuran-3,4-diol] | > 10 | > 1 | ≤ 10 |
| Nc1ncnc2c1ncn2[C@@H]1O[C@H](C(=O)NC2CCN(CCc3ccccc3)CC2)[C@@H](O)[C@H]1O [325 (228), (2S,3S,4R,5R)-5-(6-amino-9H-purin-9-yl)-3,4-dihydroxy-N-(1-phenethylpiperidin-4-yl) tetrahydrofuran-2-carboxamide] | > 10 | > 1 | ≤ 10 |
| CNc1ncnc2c1ccn2[C@@H]1C[C@H](Cn2ccnc2CCCNCCc2cccc(Oc3ccccc3)c2)[C@@H](O)[C@H]1O [326 (229), (1R,2S,3R,5R)-3-(4-(methylamino)-7H-pyrrolo[2,3-d]pyrimidin-7-yl)-5-((2-(3-((3-phenoxyphenethyl)amino)propyl)-1H-imidazol-1-yl)methyl) cyclopentane-1,2-diol] | > 10 | > 1 | ≤ 10 |
| CNc1ncnc2c1ccn2[C@@H]1C[C@H](CNCCCNCc2ccc(OCc3ccccc3)cc2)[C@@H](O)[C@H]1O [328 (232), (1S,2R,3R,5R)-3-(((3-((4-(benzyloxy)benzyl)amino)propyl)amino)methyl)-5-(4-(methylamino)-7H-pyrrolo[2,3-d]pyrimidin-7-yl) cyclopentane-1,2-diol] | > 10 | > 1 | ≤ 10 |
| CNc1ncnc2c1ccn2[C@@H]1C[C@H](CN(CCCNCCc2ccccc2)CC(F)(F)F)[C@@H](O)[C@H]1O [330 (234), (1R,2S,3R,5R)-3-(4-(methylamino)-7H-pyrrolo[2,3-d]pyrimidin-7-yl)-5-(((3-(phenethylamino)propyl)(2,2,2-trifluoroethyl)amino)methyl) cyclopentane-1,2-diol] | > 10 | 0.1 to 1 | ≤ 10 |
| CNc1ncnc2c1ccn2[C@@H]1C[C@H](CNCCCNCc2ccc(Oc3ccccc3)cc2)[C@@H](O)[C@H]1O [332 (236), (1R,2S,3R,5R)-3-(4-(methylamino)-7H-pyrrolo[2,3-d]pyrimidin-7-yl)-5-(((3-((4-phenoxybenzyl)amino)propyl)amino)methyl) cyclopentane-1,2-diol] | > 10 | > 1 | ≤ 10 |
| Nc1ncnc2c1c(Br)cn2[C@@H]1C[C@H](CNCCCNCCc2ccc(F)cc2F)[C@@H](O)[C@H]1O [334 (238), (1R,2S,3R,5R)-3-(4-amino-5-bromo-7H-pyrrolo[2,3-d]pyrimidin-7-yl)-5-(((3-((2,4-difluorophenethyl)amino)propyl)amino)methyl) cyclopentane-1,2-diol] | 0.1 to 1 | 0.01 to 0.1 | 15 to 20 |
| Nc1ncnc2c1c(Br)cn2[C@@H]1C[C@H](CNCCCNCCc2ccc(C(F)(F)F)cc2)[C@@H](O)[C@H]1O [336 (240), (1R,2S,3R,5R)-3-(4-amino-5-bromo-7H-pyrrolo[2,3-d]pyrimidin-7-yl)-5-(((3-((4-(trifluoromethyl)phenethyl)amino)propyl)amino)methyl) cyclopentane-1,2-diol] | 0.1 to 1 | 0.1 to 1 | 15 to 20 |
| Nc1ncnc2c1c(Br)cn2[C@@H]1C[C@H](CNCCCNCCc2ccccc2F)[C@@H](O)[C@H]1O [338 (242), (1R,2S,3R,5R)-3-(4-amino-5-bromo-7H-pyrrolo[2,3-d]pyrimidin-7-yl)-5-(((3-((2-fluorophenethyl)amino)propyl)amino)methyl) cyclopentane-1,2-diol] | 0.1 to 1 | 0.01 to 0.1 | 15 to 20 |
| Nc1ncnc2c1c(I)cn2[C@@H]1C[C@H](CNCCCNCCc2ccccc2)[C@@H](O)[C@H]1O [343 (246)] | 0.1 to 1 | 0.1 to 1 | 15 to 20 |
| Nc1ncnc2c1c(Br)cn2[C@@H]1C[C@H](CNCCCNCc2ccc(F)cc2)[C@@H](O)[C@H]1O [344 (248), (1R,2s,3R,5R)-3-(4-amino-5-bromo-7H-pyrrolo[2,3-d]pyrimidin-7-yl)-5-(((3-((4-fluorobenzyl)amino)propyl)amino)methyl) cyclopentane-1,2-diol] | 0.1 to 1 | 0.1 to 1 | 15 to 20 |
| CNc1ncnc2c1ccn2[C@@H]1C[C@H](C(=O)NCC2CCNCC2)[C@@H](O)[C@H]1O [346 (250), (1S,2R,3S,4R)-2,3-dihydroxy-4-(4-(methylamino)-7H-pyrrolo[2,3-d]pyrimidin-7-yl)-N-(piperidin-4-ylmethyl) cyclopentane-1-carboxamide] | > 10 | > 1 | ≤ 10 |
| CNc1ncnc2c1ccn2[C@@H]1C[C@H](C(=O)NCC2CCCNC2)[C@@H](O)[C@H]1O (stereo partly drawn) [348 (252), (1S,2R,3S,4R)-2,3-dihydroxy-4-(4-(methylamino)-7H-pyrrolo[2,3-d]pyrimidin-7-yl)-N-(piperidin-3-ylmethyl) cyclopentane-1-carboxamide] | > 10 | > 1 | ≤ 10 |
